The values that follow come from ChEMBL document CHEMBL4390673, “Identification of Novel Coumestan Derivatives as Polyketide Synthase 13 Inhibitors against Mycobacterium tuberculosis. Part II” (J Med Chem, 2019).

Values after ≈ are worked out from the molar mass of the structure shown.

For experiment [1], the system named is Polyketide synthase Pks13 (Mycobacterium tuberculosis (strain ATCC 25618 / H37Rv)), I6X8D2 [D1644G,N1640K]. In words: Inhibition of Pks13 D1644G/N1640K double mutant thioesterase domain in Mycobacterium tuberculosis H37Rv assessed as reduction in bacterial growth by microplate alamar blue assay. (In general: Alamar Blue is a resazurin reagent that responds to reducing activity.)

For experiment [2] the test system is unchanged. In words: Inhibition of Pks13 D1644G/N1640K double mutant thioesterase domain in drug-susceptible Mycobacterium tuberculosis V4207 assessed as reduction in bacterial growth by microplate alamar blue assay.
Experiment [3] has the same test system. In words: Inhibition of Pks13 D1644G/N1640K double mutant thioesterase domain in multidrug-resistant Mycobacterium tuberculosis V2475 assessed as reduction in bacterial growth by microplate alamar blue assay.
Experiment [4] shares this test system. In words: Inhibition of Pks13 D1644G/N1640K double mutant thioesterase domain in multidrug-resistant Mycobacterium tuberculosis KZN494 assessed as reduction in bacterial growth by microplate alamar blue assay.
For experiment [5] the test system is unchanged. In words: Inhibition of Pks13 D1644G/N1640K double mutant thioesterase domain in extensively drug-resistant Mycobacterium tuberculosis TF274 assessed as reduction in bacterial growth by microplate alamar blue assay.
The test system is the same in experiment [6]. In words: Inhibition of Pks13 D1644G/N1640K double mutant thioesterase domain in extensively drug-resistant Mycobacterium tuberculosis R506 assessed as reduction in bacterial growth by microplate alamar blue assay.

`COCCOc1ccc2oc3c4ccccc4oc(=O)c3c2c1CN1CCCC1=O`: in experiment [1], the MIC=<90 is over 64 µg/mL.
`CC1CCN(Cc2c(O)ccc3oc4c5ccccc5oc(=O)c4c23)CC1`: the MIC=<90 in experiment [1] came to 0.5 µg/mL (≈ 1.38 µM).
As for `CC1COc2c(N3CCN(C)CC3)c(F)cc3c(=O)c(C(=O)O)cn1c23` (stereo unspecified), the MIC=<90 in experiment [2] was 0.5 µg/mL (≈ 1.38 µM); in experiment [3] it was 0.5 µg/mL (≈ 1.38 µM); in experiment [4], 0.5 µg/mL (≈ 1.38 µM); in experiment [5], 8 µg/mL (≈ 22.1 µM); in experiment [6], 4 µg/mL (≈ 11.1 µM).
On to `C[C@H]1COc2c(N3CCN(C)CC3)c(F)cc3c(=O)c(C(=O)O)cn1c23`, for which the MIC=<90 in experiment [1] was 0.25 µg/mL (≈ 0.692 µM); in experiment [2] it was 0.125 µg/mL (≈ 0.346 µM); in experiment [5], 1 µg/mL (≈ 2.77 µM); in experiment [6], 2 µg/mL (≈ 5.53 µM).
For the compound `O=c1oc2ccccc2c2oc3cc(CN4CCCCC4)c(O)cc3c12`, the MIC=<90 in experiment [1] is over 64 µg/mL.
The same measure, in the same setting: in the case of `O=c1oc2ccccc2c2oc3c(Cl)cc(O)c(CN4CCCCC4)c3c12` it was 2 µg/mL (≈ 5.21 µM).
As for `NC[C@H]1O[C@H](O[C@H]2[C@H](O)[C@@H](O[C@H]3O[C@H](CO)[C@@H](O)[C@H](N)[C@H]3O)[C@H](N)C[C@@H]2N)[C@H](O)[C@@H](O)[C@@H]1O`, the MIC=<90 in experiment [1] is 2 µg/mL (≈ 4.13 µM); in experiment [2] it was 2 µg/mL (≈ 4.13 µM); in experiment [3] it was 2 µg/mL (≈ 4.13 µM); in experiment [4], 2 µg/mL (≈ 4.13 µM); in experiment [5] it was over 128 µg/mL; in experiment [6] it was over 128 µg/mL.
`COc1c(N2C[C@@H]3CCCN[C@@H]3C2)c(F)cc2c(=O)c(C(=O)O)cn(C3CC3)c12`: the MIC=<90 in experiment [1] was 0.0625 to 0.125 µg/mL (≈ 0.156 to 0.311 µM).
On the same count and under the same terms, in the case of `O=c1oc2ccc(O)cc2c2oc3ccc(O)c(CN4CCCCC4)c3c12` it was 0.5 µg/mL (≈ 1.37 µM).
Same read-out and setting: in the case of `COCCOc1ccc2oc3c4ccccc4oc(=O)c3c2c1CN1CCCCC1=O` it was over 64 µg/mL.
Still for that read-out and setting: in the case of `O=c1oc2ccccc2c2oc3cc(O)c(O)c(CN4CCCCC4)c3c12` it was 4 µg/mL (≈ 10.9 µM).
`CC(C)(C)c1cc(O)c(CN2CCCCC2)c2c1oc1c3cc(O)ccc3oc(=O)c12`: the MIC=<90 in experiment [1] came out at 0.125 µg/mL (≈ 0.297 µM).
The same measure, in the same setting: to `O=C1CCCN1Cc1c(O)ccc2oc3c4ccccc4oc(=O)c3c12` belongs over 64 µg/mL; to `CC1CCCCN1Cc1c(O)ccc2oc3c4ccccc4oc(=O)c3c12` (stereo unspecified), 1 µg/mL (≈ 2.75 µM).
The same measure, in the same setting: to `O=C1CCCCN1Cc1c(O)ccc2oc3c4ccccc4oc(=O)c3c12` belongs over 64 µg/mL.
Take `NNC(=O)c1ccncc1`: the MIC=<90 in experiment [1] worked out at 0.04 µg/mL (≈ 0.292 µM); in experiment [2], 0.04 µg/mL (≈ 0.292 µM); in experiment [3] it was 16 µg/mL (≈ 117 µM); in experiment [4], 16 µg/mL (≈ 117 µM); in experiment [5] it was 8 µg/mL (≈ 58.3 µM); in experiment [6] it was 8 µg/mL (≈ 58.3 µM).
Take `O=c1oc2ccccc2c2oc3cc(Br)c(O)c(CN4CCCCC4)c3c12`: in experiment [1], the MIC=<90 is over 64 µg/mL.
Same read-out and setting: in the case of `O=c1oc2cc(O)c(O)cc2c2oc3cc(O)c(O)c(CN4CCCCC4)c3c12` it was 32 µg/mL (≈ 80.5 µM); in that of `CC[C@@H](CO)NCCN[C@@H](CC)CO`, 1 µg/mL (≈ 4.89 µM); in that of `O=c1oc2ccccc2c2oc3ccc(O)c(CN4CCCC4)c3c12`, 0.5 µg/mL (≈ 1.49 µM).
Still for that read-out and setting: to `O=C(c1cc2oc3c4ccccc4oc(=O)c3c2cc1O)N1CCCCC1` belongs over 64 µg/mL; to `O=c1oc2ccccc2c2oc3cc([N+](=O)[O-])c(O)c(CN4CCCCC4)c3c12`, over 64 µg/mL.
On the same count and under the same terms, in the case of `COc1ccc2oc3c4ccccc4oc(=O)c3c2c1C(=O)N1CCCCC1` it was over 64 µg/mL.
For `CO[C@H]1/C=C/O[C@@]2(C)Oc3c(C)c(O)c4c(O)c(c(/C=N/N5CCN(C)CC5)c(O)c4c3C2=O)NC(=O)/C(C)=C\C=C\[C@H](C)[C@H](O)[C@@H](C)[C@@H](O)[C@@H](C)[C@H](OC(C)=O)[C@@H]1C`, the MIC=<90 was 0.125 µg/mL (≈ 0.152 µM) in experiment [1]; 0.0625 µg/mL (≈ 0.0759 µM) in experiment [2]; 4 µg/mL (≈ 4.86 µM) in experiment [3]; 128 µg/mL (≈ 156 µM) in experiment [4]; over 128 µg/mL in experiment [5]; over 128 µg/mL in experiment [6].
As to `O=c1oc2cc(O)ccc2c2oc3ccc(O)c(CN4CCCCC4)c3c12`, the MIC=<90 in experiment [1] was 0.0039 µg/mL (≈ 0.0107 µM); in experiment [2], 0.0078 µg/mL (≈ 0.0213 µM); in experiment [3], 0.0156 µg/mL (≈ 0.0427 µM); in experiment [4], 0.0039 µg/mL (≈ 0.0107 µM); in experiment [5], 0.0078 µg/mL (≈ 0.0213 µM); in experiment [6], 0.0078 µg/mL (≈ 0.0213 µM).
As for `O=c1oc2cc(O)ccc2c2oc3cc(O)c(O)c(CN4CCCCC4)c3c12`, the MIC=<90 in experiment [1] turned out to be 2 µg/mL (≈ 5.24 µM).
On the same count and under the same terms, in the case of `NCC[C@H](O)C(=O)N[C@@H]1C[C@H](N)[C@@H](O[C@H]2O[C@H](CN)[C@@H](O)[C@H](O)[C@H]2O)[C@H](O)[C@H]1O[C@H]1O[C@H](CO)[C@@H](O)[C@H](N)[C@H]1O` it was 1 µg/mL (≈ 1.71 µM); in that of `O=C(NCC1CC1)c1c(O)ccc2oc3c4ccccc4oc(=O)c3c12`, over 64 µg/mL.
The same measure, in the same setting: to `CC(C)(C)c1cc(O)c(CN2CCCCC2)c2c1oc1c3ccccc3oc(=O)c12` belongs 0.0625 to 0.125 µg/mL (≈ 0.154 to 0.308 µM); to `CC1CCCN(Cc2c(O)ccc3oc4c5ccccc5oc(=O)c4c23)C1` (stereo unspecified), 2 µg/mL (≈ 5.5 µM); to `O=c1oc2ccccc2c2oc3ccc(O)c(CN4CCCCC4)c3c12`, 0.125 to 0.25 µg/mL (≈ 0.358 to 0.716 µM).
Consider `Cc1cc(O)c(CN2CCCCC2)c2c1oc1c3ccccc3oc(=O)c12`, for which, in experiment [1], the MIC=<90 was 0.125 µg/mL (≈ 0.344 µM).
On the same count and under the same terms, in the case of `C[C@@H]1NC(=O)[C@@H](N)CNC(=O)[C@H](C2CCNC(=N)N2)NC(=O)/C(=C/NC(N)=O)NC(=O)[C@H](CNC(=O)CC(N)CCCN)NC1=O.N=C1NCCC([C@@H]2NC(=O)/C(=C/NC(N)=O)NC(=O)[C@H](CNC(=O)CC(N)CCCN)NC(=O)[C@H](CO)NC(=O)[C@@H](N)CNC2=O)N1` (stereo partly specified) it was 1 µg/mL; in that of `O=c1oc2ccccc2c2oc3ccc(O)cc3c12`, over 64 µg/mL.
Same read-out and setting: to `O=c1oc2ccccc2c2oc3c(Br)cc(O)c(CN4CCCCC4)c3c12` belongs 2 µg/mL (≈ 4.67 µM).
As to `CC(C)(C)c1cc(O)c(CN2CCCCC2)c2c1oc1c3ccc(O)cc3oc(=O)c12`, the MIC=<90 in experiment [1] is 0.0039 µg/mL (≈ 0.00925 µM); in experiment [2] it was 0.0039 to 0.0078 µg/mL (≈ 0.00925 to 0.0185 µM); in experiment [3], 0.0156 µg/mL (≈ 0.037 µM); in experiment [4], 0.001 to 0.002 µg/mL (≈ 0.00237 to 0.00475 µM); in experiment [5] it was 0.0039 µg/mL (≈ 0.00925 µM); in experiment [6], 0.0039 µg/mL (≈ 0.00925 µM).
As for `O=C1CCCCCN1Cc1c(O)ccc2oc3c4ccccc4oc(=O)c3c12`, the MIC=<90 in experiment [1] was over 64 µg/mL.
The same measure, in the same setting: in the case of `O=C(c1c(O)ccc2oc3c4ccccc4oc(=O)c3c12)N1CCCCC1` it was over 64 µg/mL; in that of `CCOC(=O)c1c(-c2ccccc2)oc2ccc(O)c(CN3CCC(C)CC3)c12`, 1 µg/mL (≈ 2.54 µM).
Still for that read-out and setting: to `CCOc1ccc2oc3c4ccccc4oc(=O)c3c2c1CN1CCCCC1=O` belongs over 64 µg/mL; to `COc1cc2oc3c4ccccc4oc(=O)c3c2c(CN2CCCCC2)c1O`, 2 µg/mL (≈ 5.27 µM).
On the same count and under the same terms, in the case of `CNC(=O)c1c(-c2ccc(O)cc2)oc2ccc(O)c(CN3CCCCC3)c12` it was 0.0313 µg/mL (≈ 0.0823 µM); in that of `COc1ccc2oc3c4ccccc4oc(=O)c3c2c1CN1CCCCC1=O`, over 64 µg/mL.
Consider `COc1ccc2oc3c4ccccc4oc(=O)c3c2c1CN1CCCC1=O`, for which the MIC=<90 in experiment [1] is over 64 µg/mL.
